Data: patent US20260335468A1, “MOLECULAR RADIOAFTERGLOW PROBES FOR CANCER RADIODYNAMIC THERANOSTICS” (NANYANG TECHNOLOGICAL UNIVERSITY, priority 2023, published 2026)

What was measured:
Format in all cases: physicochemical
[1] = Radio afterglow spectra, intensity and half-life of luminophores in PBS after X-ray
Description: The optical properties of DPAs and IDPAs were investigated in an aqueous solution (FIGS. 2 and 3). […] Their half-lives ranged from 9.2 to 196.8 min (FIG. 4e).
DPAs or IDPAs (100 μM) in 0.01 M PBS (pH 7.4, 50% DMSO) were irradiated by X-rays at 250 μGy s^−1 for 20 s (total, 5 mGy) under the specific setup parameter of 10 kV and 75 μA. Then, the radio afterglow signal was collected with an IVIS imaging system under the bioluminescence mode with an open filter and an acquisition time of 60 s. Finally, the radio afterglow intensities were quantified by a region-of-interest analysis using Living Image 4.3 software. In addition, the radio afterglow spectra of the candidates were acquired under the same test conditions with specific emission filters, and time courses of the signal were recorded as a function of time.

[2] = ^1O2 generation upon X-ray irradiation (ESR, TEMP trap); settings: X-ray irradiation, ESR
Description: To study ^1O2 generation, a mixture of DPAS or IDPAS (100 M) and TEMP (10 mM) in PBS (0.01 M, pH 7.4, 50% DMSO) was irradiated by X-rays at 2 Gy (100 mGy s^−1 for 20 s) or 5 mGy (250 μGy s^−1 for 20 s). The ESR signals of the mixture were recorded with a Bruker A300 instrument. The ESR signal of the free radical 2,2,6,6-tetramethyl-1-piperidinyloxyl (g=2.0060) was generated by the reaction of ^1O2 with TEMP. The ^1O2 quencher NaN3 (1 mM) was added to validate the afterglow mechanism of IDPASu. Additionally, other commercially available radio sensitizers (such as acridine orange, hematoporphyrin and verteporfin) were measured and compared. The procedure of block depths was similar to that of the tissue penetration depth study and the ^1O2 generation for different depth tissues was measured. The ESR signal changes of MRAP in the absence or presence of CatB were measured in a similar way. The ESR signals of 2,2,6,6-tetramethyl-1-piperidinyloxyl from the reaction of ^1O2 with TEMP were plotted as a function of the concentration of ^1O2, which was generated by the addition of NaOCl to H2O2. This generated the standard curve between the ESR intensity and ^1O2 concentration.

[3] = HPLC analysis of IDPASu after X-ray irradiation
Description: HPLC purification and analyses were performed with an Agilent 1260 system using methanol/H2O or acetonitrile/H2O as an eluent. X-ray irradiation was conducted with MOXTEK MAGPRO (Moxtek, Inc. 452 West 1260 North Orem, UT 84057) and the dose was calibrated by RAYSAFE R/F X2 X (FLUKE, USA). White-light irradiation was used by a xenon lamp PLS-SEX300D (Beijing Perfectlight Technology Co., Ltd.).
To study the radio afterglow mechanism, the sample of IDPASu after X-ray irradiation was analysed with HPLC and high-resolution mass spectrometry.

Heat generation study = settings: 100 μM, X-ray 5 mGy
Description: IDPASu (100 μM, 100 μL) solution and PBS in a round cap with the diameter of 1 cm were prepared and then irradiated by X-ray at dose of 5 mGy (250 μGy·s^−1 for 20 s), respectively. The temperatures of the IDPASu solution and PBS were recorded by FUR Infrared Camera (FLIR A35-Series, FUR Systems).

[4] = X-ray 2 Gy, 100 mGy s^−1 for 20 s

COC(=C1C2CC3CC(C2)CC1C3)c1cc(O)c(I)cc1/C=C/C1=CC(=C(C#N)C#N)c2ccccc2S1 [IDPASu]
radio afterglow intensity increase versus iodine-free counterpart ([1]; 100 μM, PBS pH 7.4, 50% DMSO, X-ray 5 mGy): 6.46 fold | correlation of radio afterglow signal with concentration ([1]; IDPASu solution): linear correlation | long-lasting radio afterglow, up to ([1]; X-ray 250 μGy s^−1 for 20 s): ~ 25 h | radio afterglow emission maximum ([1]; X-ray 250 μGy s^−1 for 20 s, aqueous solution): ~ 773 nm | radio afterglow brightness / intensity ([1]; X-ray irradiation): highest brightness | repetitive induction of radio afterglow ([1]; after ten cycles of X-ray irradiation): minimal intensity decrease after ten cycles | ^1O2 generation / radiodynamic activity [2]: the highest | conversion yield to activated IDPASu (peak at 6.0 min) [3, 4]: 7.6% | conversion yield to dioxetane compound (peak at 14.8 min) [3, 4]: 3.3% | luminophore consumed by one cycle of irradiation ([3]; one cycle at 250 μGy s^−1 for 20 s, HPLC): ~ 3% | heat generation upon radiation (Heat generation study): did not cause any heat generation
